Earlier results, collected in patent US20260057961A1, “CHROMOSOME 9P24 LOSS AND GAIN PREDICTS RESISTANCE AND BENEFIT OF IMMUNE CHECKPOINT INHIBITORS” (THE REGENTS OF THE UNIVERSITY OF CALIFORNIA, priority 2022, published 2026).

Assays:
HNSC [1] = settings: recurrent/metastatic setting after platinum failure
HNSC [2] = tested on: HNSC

| Substance | overall survival compared to chemotherapy or cetuximab (HNSC [1]) | overall survival compared to chemotherapy (HNSC [2]; pembrolizumab alone, approximately 20% of patients, with no PD-L1 expression) | survival versus platinum/5FU/cetuximab (HNSC [2]; pembrolizumab monotherapy, patients whose tumors expressed PD-L1 protein by immunohistochemistry) |
| --- | --- | --- | --- |
| nivolumab | improved overall survival | – | – |
| pembrolizumab | improved overall survival | worse | improved survival |
